Drawing on ChEMBL document CHEMBL1159086, “Design, synthesis and SAR analysis of novel selective sigma1 ligands (Part 2)” (Bioorg Med Chem, 2010), this text covers Ki, selectivity ratio and inhibition for 12 molecules.

In assay [1] the target is Sigma non-opioid intracellular receptor 1 (Rattus norvegicus, UniProt Q9R0C9). Nature of the assay: Displacement of [3H](+)-pentazocine from sigma 1 opioid receptor in rat liver homogenate. The assay is classed as tissue-based. (Loss of bound radioactivity is the signal in a displacement assay; it reports binding, not function.)
Assay [2] in a line: Displacement of [3H]ditolylguanidine from sigma 2 opioid receptor in rat liver homogenate. It counts as tissue-based.
Assay [3] in a line: Selectivity for rat liver sigma 1 opioid receptor over rat liver sigma 2 opioid receptor.
The target in assay [4] is Mu-type opioid receptor (Cavia porcellus) (UniProt P97266). Nature of the assay: Displacement of [3H]DAMGO from mu-type opioid receptor in guinea pig brain homogenate at 1 uM. It counts as tissue-based.
The target of assay [5] is Kappa-type opioid receptor (Cavia porcellus) (UniProt P41144). Nature of the assay: Displacement of [3H]-U-69593 from kappa-type opioid receptor in guinea pig brain homogenate at 1 uM. It counts as tissue-based.
The target in assay [6] is Delta-type opioid receptor (Rattus norvegicus) (UniProt P33533). Nature of the assay: Displacement of [3H]DPDPE from delta opioid receptor in rat brain homogenate at 1 uM. The assay is classed as tissue-based.
Assay [7] deals with Kappa-type opioid receptor (Cavia porcellus, UniProt P41144). Nature of the assay: Displacement of [3H]-U-69593 from kappa-type opioid receptor in guinea pig brain homogenate. It counts as tissue-based.
The target in assay [8] is Delta-type opioid receptor (Rattus norvegicus, UniProt P33533). Nature of the assay: Displacement of [3H]DPDPE from delta opioid receptor in rat brain homogenate. It counts as tissue-based.
In another assay the target is Mu-type opioid receptor (Cavia porcellus, UniProt P97266). Nature of the assay: Displacement of [3H]DAMGO from mu-type opioid receptor in guinea pig brain homogenate. The assay is classed as tissue-based.
Chain of Mu-type opioid receptor (P97266 whole entry): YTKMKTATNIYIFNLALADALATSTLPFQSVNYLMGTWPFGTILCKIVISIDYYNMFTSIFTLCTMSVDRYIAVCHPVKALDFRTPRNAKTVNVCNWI

Chain of Kappa-type opioid receptor (Cavia porcellus) (P41144 whole entry): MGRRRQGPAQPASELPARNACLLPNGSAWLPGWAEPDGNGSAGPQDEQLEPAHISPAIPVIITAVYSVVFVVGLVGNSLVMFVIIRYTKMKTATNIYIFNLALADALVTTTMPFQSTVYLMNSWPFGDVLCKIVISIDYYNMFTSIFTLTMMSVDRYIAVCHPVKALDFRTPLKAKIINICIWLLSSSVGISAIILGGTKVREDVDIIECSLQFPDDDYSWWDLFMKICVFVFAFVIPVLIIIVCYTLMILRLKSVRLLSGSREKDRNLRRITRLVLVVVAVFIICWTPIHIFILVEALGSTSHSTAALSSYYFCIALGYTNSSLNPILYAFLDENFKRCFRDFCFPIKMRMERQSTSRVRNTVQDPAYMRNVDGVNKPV
Chain of Sigma non-opioid intracellular receptor 1 (Q9R0C9 whole entry): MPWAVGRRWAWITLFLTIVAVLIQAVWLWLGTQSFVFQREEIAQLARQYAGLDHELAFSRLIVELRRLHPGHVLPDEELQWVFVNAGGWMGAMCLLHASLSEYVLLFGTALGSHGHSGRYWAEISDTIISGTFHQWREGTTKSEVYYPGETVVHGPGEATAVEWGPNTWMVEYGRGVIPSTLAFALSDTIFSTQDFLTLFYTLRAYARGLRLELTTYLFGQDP
Chain of Mu-type opioid receptor (Cavia porcellus) (P97266 whole entry): as the sequence (P97266 whole entry) above
Chain of Delta-type opioid receptor (Rattus norvegicus) (P33533 whole entry): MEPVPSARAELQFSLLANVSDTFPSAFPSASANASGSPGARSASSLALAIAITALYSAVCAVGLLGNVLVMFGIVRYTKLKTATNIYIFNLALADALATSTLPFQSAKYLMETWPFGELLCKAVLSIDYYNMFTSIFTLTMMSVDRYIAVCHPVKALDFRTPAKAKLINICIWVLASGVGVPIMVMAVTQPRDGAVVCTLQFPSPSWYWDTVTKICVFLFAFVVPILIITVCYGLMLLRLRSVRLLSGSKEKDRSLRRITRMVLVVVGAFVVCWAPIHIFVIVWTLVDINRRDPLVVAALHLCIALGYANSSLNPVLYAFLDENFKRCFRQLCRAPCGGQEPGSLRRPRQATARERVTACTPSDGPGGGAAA
Chain of Delta-type opioid receptor (P33533 whole entry): as above
Chain of Kappa-type opioid receptor (P41144 whole entry): as the sequence (P41144 whole entry) above

Turning to `CN(CCC(C)(O)c1ccc(-c2ccccc2)cc1)Cc1ccccc1` (racemic), the results for the Ki in assay [1] and in [2] were 2.38 nM and 215 nM, respectively. The selectivity ratio in assay [3] came out at 90. Also, the inhibition was 45% in assay [4], 30% in [5] and 31% in assay [6].

For the molecule `C/C(=C\CN(C)Cc1ccccc1)c1ccc(-c2ccccc2)cc1`, the Ki was found to be 4.17 nM in assay [1] and 309 nM in assay [2]. The selectivity ratio in assay [3] stood at 74.

As for `COc1ccc2cc(C(C)(O)CCN(C)C)ccc2c1` (racemic), the Ki in assay [1] was 38.8 nM; in assay [2] it was over 10000 nM. Moreover, the selectivity ratio in assay [3] was over 258.

For `COc1ccc2cc(C(C)CCN(C)Cc3ccccc3)ccc2c1` (racemic), the Ki in assay [1] was 2.31 nM; in assay [2] it was 169 nM; in assay [7], 841 nM; in [8] it was 171 nM. Further, the selectivity ratio in [3] worked out at 73. In [4], this molecule returned an inhibition of 32%.

`COc1ccc2cc(C(C)(O)CCN3CCCCC3)ccc2c1` (stereo not drawn): the Ki in assay [1] came to 10.4 nM; in assay [2] it was 154 nM. The selectivity ratio in [3] stood at 15.

On to `CC(CCN(C)Cc1ccccc1)c1ccc(-c2ccccc2)cc1` (racemic), for which the results for the Ki (in assay [1]; in assay [2]; on Mu-type opioid receptor) were 3.59 nM, 214 nM and 248 nM, respectively. For the same molecule, in [3], the selectivity ratio stood at 60. Also, the inhibition in [5] stood at 15%; in assay [6], 0%.

As to `COc1ccc2cc(C(C)CCN(C)C)ccc2c1` (racemic), the Ki in assay [1] came to 14.4 nM; in assay [2] it was 1550 nM. In addition, the selectivity ratio in assay [3] was determined as 108.

For the molecule `COc1ccc2cc(/C(C)=C/CN(C)C)ccc2c1`, the figures for the Ki in [1] and in [2] were 27.3 nM and 707 nM, respectively. Also, the selectivity ratio in assay [3] was determined as 26.

On to `COc1ccc2cc(C(C)CCN3CCCCC3)ccc2c1` (racemic), for which the Ki in assay [1] is 1.29 nM; in assay [2], 169 nM. The selectivity ratio in assay [3] was 131.

`COc1ccc2cc(/C(C)=C/CN(C)Cc3ccccc3)ccc2c1`: the figures for the Ki in assay [1] and in assay [2] were 13.7 nM and 568 nM, respectively. The selectivity ratio in assay [3] was found to be 41.

Take `COc1ccc2cc(/C(C)=C/CN3CCCCC3)ccc2c1`: the Ki in assay [1] amounted to 4.41 nM; in assay [2], 136 nM. The selectivity ratio in [3] is 31.

As to `COc1ccc2cc(C(C)(O)CCN(C)Cc3ccccc3)ccc2c1` (racemic), the figures for the Ki in [1], in [2] and in assay [8] were 6.04 nM, 940 nM and 41 nM, respectively. The selectivity ratio in assay [3] was determined as 156. Moreover, the results for the inhibition in assay [4] and in assay [5] were 32% and 30%, respectively.

Broadly, the Ki is a measure of affinity in units of concentration, obtained from inhibition or displacement. Low readings indicate higher affinity, high ones lower affinity. For orientation: inhibition means the share of the control response that was lost under treatment.
